In patent US12686665B2, “Bicyclic fused ring derivative or salt thereof and pharmaceutical composition comprising same” (YUHAN CORPORATION, priority 2021, dated 2026):
Counter-ions that a name gives are not always drawn.

How the values were obtained:
Format in all cases: biochemical
[1] = molecular target: T1, recombinant human MAO-B (monoamine oxidase-B) (Homo sapiens, UniProt P27338); experiment: Amplex Red HRP-coupled amine oxidase assay, recombinant human MAO-B; settings: 1 mM benzylamine substrate, read-out: Inhibitory activity (IC50, nM) MAO-B
T1 construct: purchased Sigma-Aldrich
T1 sequence (P27338 1-520): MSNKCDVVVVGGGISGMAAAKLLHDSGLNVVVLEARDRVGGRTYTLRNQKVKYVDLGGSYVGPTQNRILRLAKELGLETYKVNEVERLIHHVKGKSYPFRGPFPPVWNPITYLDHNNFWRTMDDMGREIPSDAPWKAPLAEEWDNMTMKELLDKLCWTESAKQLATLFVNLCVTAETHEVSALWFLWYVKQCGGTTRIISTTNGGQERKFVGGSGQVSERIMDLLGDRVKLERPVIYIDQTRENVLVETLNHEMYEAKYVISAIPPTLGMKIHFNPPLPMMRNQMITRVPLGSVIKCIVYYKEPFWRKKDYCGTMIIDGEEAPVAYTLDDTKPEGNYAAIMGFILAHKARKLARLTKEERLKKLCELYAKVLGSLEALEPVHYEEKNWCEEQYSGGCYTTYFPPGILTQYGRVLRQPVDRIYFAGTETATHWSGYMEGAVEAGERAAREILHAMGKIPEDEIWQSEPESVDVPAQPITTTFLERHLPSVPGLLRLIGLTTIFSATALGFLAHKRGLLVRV
Outline: (§1)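 Enzyme preincubated 60 min at 37 °C with compound (six-point curve, 1% DMSO final) in 50 mM sodium phosphate pH 7.4, then Amplex Red 400 μM and HRP 2 U/mL added with substrate: MAO-A 0.5 mM tyramine, MAO-B 1 mM benzylamine, DAO 1 mM putrescine. Resorufin fluorescence read after 1 h; IC50 by four-parameter logistic fit.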

[2] = molecular target: T2, recombinant human DAO (diamine oxidase) (Homo sapiens, UniProt P19801); experiment: Amplex Red HRP-coupled amine oxidase assay, recombinant human DAO; settings: 1 mM putrescine substrate, read-out: Inhibitory activity (IC50, nM) DAO
T2 construct: purchased R&D systems
T2 sequence (P19801 20-751): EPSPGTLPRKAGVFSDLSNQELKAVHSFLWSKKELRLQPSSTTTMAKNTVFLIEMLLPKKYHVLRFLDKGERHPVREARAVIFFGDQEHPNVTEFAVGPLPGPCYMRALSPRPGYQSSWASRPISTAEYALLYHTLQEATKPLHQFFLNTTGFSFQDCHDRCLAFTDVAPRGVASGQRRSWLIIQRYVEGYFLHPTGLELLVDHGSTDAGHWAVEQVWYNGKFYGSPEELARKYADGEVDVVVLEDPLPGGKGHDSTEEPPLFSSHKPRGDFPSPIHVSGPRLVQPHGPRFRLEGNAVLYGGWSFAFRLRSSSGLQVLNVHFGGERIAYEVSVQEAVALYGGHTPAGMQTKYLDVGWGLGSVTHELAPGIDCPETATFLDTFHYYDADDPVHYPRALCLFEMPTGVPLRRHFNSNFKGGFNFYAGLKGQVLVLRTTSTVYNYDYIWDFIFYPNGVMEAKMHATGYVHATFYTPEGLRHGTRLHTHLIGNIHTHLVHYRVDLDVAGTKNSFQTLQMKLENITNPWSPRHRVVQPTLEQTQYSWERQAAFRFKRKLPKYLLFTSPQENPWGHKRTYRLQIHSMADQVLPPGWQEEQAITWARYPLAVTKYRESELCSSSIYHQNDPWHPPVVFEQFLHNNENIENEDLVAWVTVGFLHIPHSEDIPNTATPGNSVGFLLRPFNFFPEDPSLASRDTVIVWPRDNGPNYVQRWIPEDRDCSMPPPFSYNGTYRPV
Outline: as §1

[3] = molecular target: T3, recombinant human MAO-A (monoamine oxidase-A) (Homo sapiens, UniProt P21397); experiment: Amplex Red HRP-coupled amine oxidase assay, recombinant human MAO-A; settings: 0.5 mM tyramine substrate, read-out: Inhibitory activity (IC50, nM) MAO-A
T3 construct: purchased Sigma-Aldrich
T3 sequence (P21397 1-527): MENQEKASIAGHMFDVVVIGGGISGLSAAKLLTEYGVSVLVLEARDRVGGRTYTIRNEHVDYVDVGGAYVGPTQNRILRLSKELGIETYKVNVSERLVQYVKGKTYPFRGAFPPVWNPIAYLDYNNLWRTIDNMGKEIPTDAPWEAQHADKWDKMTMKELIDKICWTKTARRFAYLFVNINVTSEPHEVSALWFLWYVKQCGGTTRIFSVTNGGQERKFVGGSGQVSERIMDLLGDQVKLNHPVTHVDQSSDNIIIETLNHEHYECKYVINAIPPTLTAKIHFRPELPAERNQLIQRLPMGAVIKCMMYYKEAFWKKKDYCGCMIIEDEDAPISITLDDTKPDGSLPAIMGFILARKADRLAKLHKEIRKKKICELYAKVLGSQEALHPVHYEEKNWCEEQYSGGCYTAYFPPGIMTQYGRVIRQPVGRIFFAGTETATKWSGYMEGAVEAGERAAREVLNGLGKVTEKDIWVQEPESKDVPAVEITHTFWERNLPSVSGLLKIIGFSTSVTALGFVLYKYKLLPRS
Outline: as §1

[4] = molecular target: T4, recombinant human Lysyl Oxidase-Like 2 (LOXL2) (Homo sapiens, UniProt Q9Y4K0); experiment: Amplex Red HRP-coupled amine oxidase assay, recombinant human LOXL2; settings: 60 min incubation with enzyme at 37° C., putrescine substrate, read-out: Inhibitory activity (IC50, nM) human LOXL2
T4 construct: purchased R&D systems
T4 sequence (Q9Y4K0 26-774): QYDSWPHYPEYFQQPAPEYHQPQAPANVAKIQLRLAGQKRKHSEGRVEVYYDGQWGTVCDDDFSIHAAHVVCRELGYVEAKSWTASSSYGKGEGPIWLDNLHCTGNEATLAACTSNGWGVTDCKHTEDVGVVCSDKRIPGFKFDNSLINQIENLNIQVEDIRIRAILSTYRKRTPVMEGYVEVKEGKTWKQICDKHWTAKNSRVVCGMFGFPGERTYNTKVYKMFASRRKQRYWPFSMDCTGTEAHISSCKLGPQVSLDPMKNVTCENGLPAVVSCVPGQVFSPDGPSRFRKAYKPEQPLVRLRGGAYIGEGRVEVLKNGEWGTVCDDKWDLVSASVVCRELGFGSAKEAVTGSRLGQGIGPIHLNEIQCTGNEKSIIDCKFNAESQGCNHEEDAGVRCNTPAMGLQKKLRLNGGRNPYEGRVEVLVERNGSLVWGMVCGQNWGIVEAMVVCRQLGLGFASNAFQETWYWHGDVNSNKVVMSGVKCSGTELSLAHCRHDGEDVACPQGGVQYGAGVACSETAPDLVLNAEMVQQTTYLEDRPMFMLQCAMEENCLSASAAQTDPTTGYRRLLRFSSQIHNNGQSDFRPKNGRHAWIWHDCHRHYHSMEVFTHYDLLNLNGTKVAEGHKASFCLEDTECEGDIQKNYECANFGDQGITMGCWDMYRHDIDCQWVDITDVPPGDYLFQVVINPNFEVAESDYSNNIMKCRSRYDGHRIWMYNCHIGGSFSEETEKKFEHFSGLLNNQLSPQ
Outline: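 Putrescine substrate (30 mM) in 50 mM sodium phosphate pH 7.4, 37 °C; compounds preincubated 60 min with enzyme, 1% DMSO final, six-point curves. H2O2 detected via 400 μM Amplex Red/2 U/mL HRP, fluorescence (ex 530/em 590 nm) after 1 h; IC50 from four-parameter logistic fit of % signal reduction.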

For `Cc1nc2c(-c3cccc(S(=O)(=O)N(C)C)c3)cccc2n1C/C(F)=C/CN` [Example 56, (Z)-3-(1-(4-amino-2-fluorobut-2-en-1-yl)-2-methyl-1H-benzo[d]imidazol-4-yl)-N,N-dimeth ylbenzenesulfonamide hydrochloride], the IC50 [1] was greater than 100000 nM, the IC50 [2] was 227 nM and the IC50 [3] was 6540 nM. The IC50 [4] was 74 nM.
In the case of `Cn1nccc1-c1cc(C(F)(F)F)cc2c1ncn2C/C(F)=C/CN` [Example 176, (Z)-3-fluoro-4-(4-(1-methyl-1H-pyrazol-5-yl)-6-(trifluoromethyl)-1H-benzo[d]imidazol-1-yl) but-2-en-1-yl-amine hydrochloride], the IC50 [1] is reported as greater than 100000 nM, the IC50 [2] is reported as 26700 nM and the IC50 [3] is reported as greater than 100000 nM. The IC50 [4] was 92.4 nM.
`CNS(=O)(=O)c1ccc(OC)c(-c2cc(C(=O)OC)cc3c2nnn3C/C(F)=C/CN)c1` [Example 117, methyl (Z)-1-(4-amino-2-fluorobut-2-en-1-yl)-4-(2-methoxy-5-(N-methylsulfamoyl)phenyl)-1H-benzo[d][1,2,3]triazol-6-carboxylate hydrochloride] showed an IC50 [1] of 46600 nM, an IC50 [2] of 4440 nM and an IC50 [3] greater than 100000 nM. For the same molecule, the IC50 [4] was 11.9 nM.
`CNS(=O)(=O)c1ccc(OC)c(-c2cc(C(=O)OC)cc3c2ncn3C/C(F)=C/CN)c1` [Example 24, methyl (Z)-1-(4-amino-2-fluorobut-2-en-1-yl)-4-(2-methoxy-5-(N-methylsulfamoyl)phenyl)-1H-benzo[d]imidazol-6-carboxylate hydrochloride] showed an IC50 [1] greater than 100000 nM, an IC50 [2] of 21800 nM and an IC50 [3] greater than 100000 nM. For the same molecule, the IC50 [4] was 15.9 nM.
For `Cc1cc(-c2cc(C#N)cc3c2ncn3C/C(F)=C/CN)n(C)n1` [Example 194, (Z)-1-(4-amino-2-fluorobut-2-en-1-yl)-4-(1,3-dimethyl-1H-pyrazol-5-yl)-1H-benzo[d]imidazol-6-carbonitrile hydrochloride], the IC50 [1] was greater than 100000 nM, the IC50 [2] was 7590 nM and the IC50 [3] was 36800 nM. For the same molecule, the IC50 [4] was 105 nM.
`Cc1nc2c(-c3cccc(S(=O)(=O)N(C)C)c3)cc(C(=O)N(C)C)cc2n1C/C(F)=C/CN` [Example 76, (Z)-1-(4-amino-2-fluorobut-2-en-1-yl)-4-(3-(N,N-dimethylsulfamoyl)phenyl)-N,N,2-trimethyl-1H-benzo[d]imidazol-6-carboxamide hydrochloride] gave an IC50 [1] greater than 100000 nM, an IC50 [2] of 24600 nM and an IC50 [3] of 12400 nM. For the same molecule, the IC50 [4] was 58 nM.
`COC(=O)c1cc(-c2cccc(S(=O)(=O)N(C)C)c2)c2nc(C)n(C/C(F)=C/CN)c2c1` [Example 66, methyl (Z)-1-(4-amino-2-fluorobut-2-en-1-yl)-4-(3-(N,N-dimethylsulfamoyl)phenyl)-2-methyl-1H-benzo[d]imidazol-6-carboxylate hydrochloride] gave an IC50 [1] greater than 100000 nM, an IC50 [2] of 1610 nM and an IC50 [3] of 7890 nM. The IC50 [4] was 28 nM.
`COC(=O)c1cc(-c2cccc(S(=O)(=O)N3CCCC3)c2)c2ncn(C/C(F)=C/CN)c2c1` [Example 23, methyl (Z)-1-(4-amino-2-fluorobut-2-en-1-yl)-4-(3-(pyrrolidin-1-ylsulfonyl)phenyl)-1H-benzo[d]imidazol-6-carboxylate hydrochloride] gave an IC50 [1] greater than 100000 nM, an IC50 [2] of 986 nM and an IC50 [3] greater than 100000 nM. It also gave an IC50 [4] of 16.7 nM.
Work on `COC(=O)c1cc(-c2cccc(P(C)(C)=O)c2)c2ncn(C/C(F)=C/CN)c2c1` [Example 38, methyl (Z)-1-(4-amino-2-fluorobut-2-en-1-yl)-4-(3-(dimethylphosphoryl)phenyl)-1H-benzo[d]imidazol-6-carboxylate hydrochloride] yielded an IC50 [1] greater than 100000 nM, an IC50 [2] of 44500 nM and an IC50 [3] greater than 100000 nM. The IC50 [4] was 82.3 nM.
`COC(=O)c1cc(-c2cc(S(=O)(=O)NC3CC3)ccc2OC)c2ncn(C/C(F)=C/CN)c2c1` [Example 27, methyl (Z)-1-(4-amino-2-fluorobut-2-en-1-yl)-4-(5-(N-cyclopropylsulfamoyl)-2-methoxyphenyl)-1H-benzo[d]imidazol-6-carboxylate hydrochloride] was tested, and the IC50 [1] was greater than 100000 nM, the IC50 [2] was 16100 nM and the IC50 [3] was 45700 nM. It also gave an IC50 [4] of 31.3 nM.
For `CS(=O)(=O)c1cccc(-c2cc(C(F)(F)F)cc3c2ncn3C/C(F)=C/CN)c1` [Example 13, (Z)-3-fluoro-4-(4-(3-(methylsulfonyl)phenyl)-6-(trifluoromethyl)-1H-benzo[d]imidazol-1-yl) but-2-en-1-amine hydrochloride], the IC50 [1] was greater than 100000 nM, the IC50 [2] was greater than 100000 nM and the IC50 [3] was greater than 100000 nM. For the same molecule, the IC50 [4] was 104 nM.
Molecule `NC/C=C(\F)Cn1cnc2c(-c3cccc(S(=O)(=O)N4CCCC4)c3)cc(F)cc21` [Example 7, (Z)-3-fluoro-4-(6-fluoro-4-(3-(pyrrolidin-1-ylsulfonyl)phenyl)-1H-benzo[d]imidazol-1-yl)but-2-en-1-amine hydrochloride] has an IC50 [1] greater than 100000 nM, an IC50 [2] of 2410 nM and an IC50 [3] of 26500 nM. The IC50 [4] was 35 nM.
Work on `COC(=O)c1cc(-c2cccc(S(=O)(=O)N(C)C)c2)c2ncn(C/C(F)=C/CN)c2c1` [Example 31, methyl (Z)-1-(4-amino-2-fluorobut-2-en-1-yl)-4-(3-(N,N-dimethysulfamoyl)phenyl)-1H-benzo[d]imidazol-6-carboxylate hydrochloride] yielded an IC50 [1] greater than 100000 nM, an IC50 [2] of 139 nM and an IC50 [3] of 24600 nM. It also gave an IC50 [4] of 19.4 nM.
